Source: paper PMC7721589, “Synthesis and structure-activity relationships for tetrahydroisoquinoline-based inhibitors of Mycobacterium tuberculosis” (Bioorganic & Medicinal Chemistry, 2020)
In brackets after ≈: the same amount, converted by molar mass. Where two headings read alike, the source gives them in different places.

What was measured:
M.tb strain H37Rv [1] = assay: MIC against M.tb H37Rv under aerobic (replicating; MABA) conditions; type: cell-based, Mycobacterium tuberculosis; details: Mycobacterium tuberculosis
[2] = system: Vero green monkey-derived epithelial kidney cells; assay: Mammalian cytotoxicity in Vero cells; type: cell-based; details: Chlorocebus sabaeus
M.tb strain H37Rv [3] = assay: MIC against M.tb H37Rv under non-replicating (LORA) conditions; details: for MIC LORA: MIC90, Table 1; for MIC (µg/mL) LORA: MIC90, Table 2
[4] = MIC90, Table 1, read-out: MIC MABA
[5] = MIC90, Table 2, read-out: MIC (µg/mL) MABA

Structure (SMILES)	MIC (M.tb strain H37Rv [1]; [4]) [µg/mL]	IC50 ([2]; Table 1) [µg/mL]	melting point [°C]	MIC LORA (M.tb strain H37Rv [3]) [µg/mL]	MIC (M.tb strain H37Rv [1]; [5]) [µg/mL]	IC50 ([2]; Table 2) [µg/mL]	MIC (µg/mL) LORA (M.tb strain H37Rv [3]) [µg/mL]
CN1CCN(c2cccc3c2CN(C(=O)Cc2ccc(-c4ccc(Cl)cc4)cn2)CC3)CC1 [Compound 43, 2-(5-(4-Chlorophenyl)pyridin-2-yl)-1-(8-(4-methylpiperazin-1-yl)-3,4-dihydroisoquinolin-2(1H)-yl)ethan-1-one]	14.1 (≈ 30.6 µM)	19 (≈ 41.2 µM)	49 to 52	20.3 (≈ 44 µM)			
COc1ccc(-c2ccc(NC(=O)N3CCc4c(OC)ccc(N5CCN(C)CC5)c4C3)nc2)cc1 [Compound 33, 5-Methoxy-N-(5-(4-methoxyphenyl)pyridin-2-yl)-8-(4-methylpiperazin-1-yl)-3,4-dihydroisoquinoline-2(1H)-carboxamide]	7.1 (≈ 14.6 µM)	16 (≈ 32.8 µM)	207 to 209	7.4 (≈ 15.2 µM)			
COc1ccc(-c2ccc(NC(=O)N3CCc4c(OC)ccc(N5CCN(C)CC5)c4C3)nc2)cn1 [Compound 32, 5-Methoxy-N-(6′-methoxy-[3,3′-bipyridin]-6-yl)-8-(4-methylpiperazin-1-yl)-3,4-dihydroisoquinoline-2(1H)-carboxamide]	15.5 (≈ 31.7 µM)	14 (≈ 28.7 µM)	93 to 96	20 (≈ 40.9 µM)			
Cc1cc(Cl)ccc1-c1ccc(C(=O)N2CCc3cccc(N4CCN(C)CC4)c3C2)nc1 [Compound 18, (5-(4-Chloro-2-methylphenyl)pyridin-2-yl)(8-(4-methylpiperazin-1-yl)-3,4-dihydroisoquinolin-2(1H)-yl)methanone]	11 (≈ 23.9 µM)	20 (≈ 43.4 µM)	132 to 135	13 (≈ 28.2 µM)			
CN1CCN(c2cccc3c2CN(C(=O)c2ccc(-c4cccc(Cl)c4)cn2)CC3)CC1 [Compound 20, (5-(3-Chlorophenyl)pyridin-2-yl)(8-(4-methylpiperazin-1-yl)-3,4-dihydroisoquinolin-2(1H)-yl)methanone]	15 (≈ 33.6 µM)	24 (≈ 53.7 µM)	105 to 108	11.3 (≈ 25.3 µM)			
CN1CCN(c2cccc3c2CN(C(=O)c2ccc(-c4ccc(Cl)cc4)cn2)CC3)CC1 [Compound 19, (5-(4-Chlorophenyl)pyridin-2-yl)(8-(4-methylpiperazin-1-yl)-3,4-dihydroisoquinolin-2(1H)-yl)methanone]	16 (≈ 35.8 µM)	27 (≈ 60.4 µM)	144 to 147	20 (≈ 44.7 µM)			
COc1ccc(N2CCN(C)CC2)c2c1CCN(C(=O)c1ccc(-c3ccc(Cl)cc3C)cn1)C2 [Compound 22, (5-(4-Chloro-2-methylphenyl)pyridin-2-yl)(5-methoxy-8-(4-methylpiperazin-1-yl)-3,4-dihydroisoquinolin-2(1H)-yl)methanone]	8.9 (≈ 18.1 µM)	22 (≈ 44.8 µM)	125 to 128	8.0 (≈ 16.3 µM)			
Cc1cc(Cl)ccc1-c1ccc(CC(=O)N2CCc3cccc(N4CCN(C)CC4)c3C2)nc1 [Compound 47]	14 (≈ 29.5 µM)	11 (≈ 23.2 µM)	45 to 48	19.4 (≈ 40.8 µM)			
Cc1ccc(-c2ccc(NC(=O)N3CCc4c(Cc5ccccc5)ccc(N5CCN(C)CC5)c4C3)nc2)c(C)c1 [Compound 30, 5-Benzyl-N-(5-(2,4-dimethylphenyl)pyridin-2-yl)-8-(4-methylpiperazin-1-yl)-3,4-dihydroisoquinoline-2(1H)-carboxamide]	2 (≈ 3.66 µM)	11 (≈ 20.2 µM)	94 to 97	1.9 (≈ 3.48 µM)			
Cc1cc(Cl)ccc1-c1ccc(CN2CCc3c(C)ccc(N4CCSCC4)c3C2)nc1 [Compound 54, 4-(2-((5-(4-Chloro-2-methylphenyl)pyridin-2-yl)methyl)-5-methyl-1,2,3,4-tetrahydroisoquinolin-8-yl)yhiomorpholine]			133 to 135		3.4 (≈ 7.33 µM)	> 32	5.9 (≈ 12.7 µM)
CSc1ccc(N2CCN(C)CC2)c2c1CCN(Cc1ccc(-c3ccc(Cl)cc3C)cn1)C2 [Compound 14, 2-((5-(4-Chloro-2-methylphenyl)pyridin-2-yl)methyl)-8-(4-methylpiperazin-1-yl)-5-(methylthio)-1,2,3,4-tetrahydroisoquinoline]	3.4 (≈ 6.89 µM)	11 (≈ 22.3 µM)	65 to 68	6.0 (≈ 12.2 µM)			
COc1ccc(N2CCN(C)CC2)c2c1CCN(C(=O)Nc1ccc(-c3cncnc3)cn1)C2 [Compound 31, 5-Methoxy-8-(4-methylpiperazin-1-yl)-N-(5-(pyrimidin-5-yl)pyridin-2-yl)-3,4-dihydroisoquinoline-2(1H)-carboxamide]	> 32	> 32	236 to 239	>32			
CN1CCN(c2ccc(F)c3c2CN(Cc2ccc(-c4ccc(Cl)cc4C(F)(F)F)cn2)CC3)CC1 [Compound 17, 2-((5-(4-Chloro-2-(trifluoromethyl)phenyl)pyridin-2-yl)methyl)-5-fluoro-8-(4-methylpiperazin-1-yl)-1,2,3,4-tetrahydroisoquinoline]	2.3 (≈ 4.43 µM)	11 (≈ 21.2 µM)	102 to 104	5.4 (≈ 10.4 µM)			
CCc1ccc(N2CCN(C)CC2)c2c1CCN(C(=O)Nc1ccc(-c3ccc(Cl)cc3C)cn1)C2 [Compound 28, N-(5-(4-Chloro-2-methylphenyl)pyridin-2-yl)-5-ethyl-8-(4-methylpiperazin-1-yl)-3,4-dihydroisoquinoline-2(1H)-carboxamide]	2.9 (≈ 5.75 µM)	12 (≈ 23.8 µM)	180 to 182	1.8 (≈ 3.57 µM)			
COc1ccc(N2CCN(C)CC2)c2c1CCN(C(=O)c1ccc(-c3ccc(Cl)cc3)cn1)C2 [Compound 21, (5-(4-Chlorophenyl)pyridin-2-yl)(5-methoxy-8-(4-methylpiperazin-1-yl)-3,4-dihydroisoquinolin-2(1H)-yl)methanone]	13 (≈ 27.3 µM)	11 (≈ 23.1 µM)	124 to 127	12 (≈ 25.2 µM)			
Cc1cc(Cl)ccc1-c1ccc(CN2CCc3c(C)ccc(N4CCCCC4)c3C2)nc1 [Compound 55, 2-((5-(4-Chloro-2-methylphenyl)pyridin-2-yl)methyl)-5-methyl-8-(piperidin-1-yl)-1,2,3,4-tetrahydroisoquinoline]			96 to 98		2.6 (≈ 5.83 µM)	> 32	
COc1ccc(N2CCN(C)CC2)c2c1CCN(C(=O)Nc1ccc(-c3ccc(C(F)(F)F)cc3Cl)cn1)C2 [Compound 34, N-(5-(2-Chloro-4-(trifluoromethyl)phenyl)pyridin-2-yl)-5-methoxy-8-(4-methylpiperazin-1-yl)-3,4-dihydroisoquinoline-2(1H)-carboxamide]	3.6 (≈ 6.43 µM)	12 (≈ 21.4 µM)	61 to 64	3.2 (≈ 5.71 µM)			
Cc1cc(Cl)ccc1-c1ccc(CN2CCc3c(C)ccc(N4CCNCC4)c3C2)nc1 [Compound 52, 2-((5-(4-Chloro-2-methylphenyl)pyridin-2-yl)methyl)-5-methyl-8-(piperazin-1-yl)-1,2,3,4-tetrahydroisoquinoline]					1.8 (≈ 4.03 µM)	12 (≈ 26.8 µM)	4.4 (≈ 9.84 µM)
CSc1ccc(N2CCN(C)CC2)c2c1CCN(C(=O)Nc1ccc(-c3ccc(Cl)cc3C)cn1)C2 [Compound 40, N-(5-(4-Chloro-2-methylphenyl)pyridin-2-yl)-8-(4-methylpiperazin-1-yl)-5-(methylthio)-3,4-dihydroisoquinoline-2(1H)-carboxamide]	1.9 (≈ 3.64 µM)	13 (≈ 24.9 µM)	111 to 114	2.0 (≈ 3.83 µM)			
CN1CCN(c2ccc(F)c3c2CN(Cc2ccc(-c4ccc(F)cc4F)cn2)CC3)CC1 [Compound 16, 2-((5-(2,4-Difluorophenyl)pyridin-2-yl)methyl)-5-fluoro-8-(4-methylpiperazin-1-yl)-1,2,3,4-tetrahydroisoquinoline]	15 (≈ 33.1 µM)	22 (≈ 48.6 µM)		21 (≈ 46.4 µM)			
COc1ccc(N2CCN(C)CC2)c2c1CCN(C(=O)Nc1ccc(-c3ccc(OC(F)(F)F)cc3)cn1)C2 [Compound 37, 5-Methoxy-8-(4-methylpiperazin-1-yl)-N-(5-(4-(trifluoromethoxy)phenyl)pyridin-2-yl)-3,4-dihydroisoquinoline-2(1H)-carboxamide]	3.1 (≈ 5.72 µM)	12 (≈ 22.2 µM)	196 to 198	3.0 (≈ 5.54 µM)			
COc1ccc(N2CCN(C)CC2)c2c1CCN(C(=O)N1CCC(Oc3ccc(OC(F)(F)F)cc3)CC1)C2 [Compound 50, (5-Methoxy-8-(4-methylpiperazin-1-yl)-3,4-dihydroisoquinolin-2(1H)-yl)(4-(4-(trifluoromethoxy)phenoxy)piperidin-1-yl)methanone]	7.6 (≈ 13.9 µM)	15 (≈ 27.3 µM)	49 to 51	7.0 (≈ 12.8 µM)			
COc1ccc(N2CCN(C)CC2)c2c1CCN(C(=O)N1CCC(Oc3ccccc3C(F)(F)F)CC1)C2 [Compound 51, (5-Methoxy-8-(4-methylpiperazin-1-yl)-3,4-dihydroisoquinolin-2(1H)-yl)(4-(2-(trifluoromethyl)phenoxy)piperidin-1-yl)methanone]	12 (≈ 22.5 µM)	24 (≈ 45.1 µM)	74 to 77	10.0 (≈ 18.8 µM)			
COc1ccc(N2CCN(C)CC2)c2c1CCN(C(=O)Nc1ccc(-c3cc(C(F)(F)F)cc(C(F)(F)F)c3)cn1)C2 [Compound 38, N-(5-(3,5-Bis(trifluoromethyl)phenyl)pyridin-2-yl)-5-methoxy-8-(4-methylpiperazin-1-yl)-3,4-dihydroisoquinoline-2(1H)-carboxamide]	1.3 (≈ 2.19 µM)	10 (≈ 16.8 µM)	106 to 109				
CN1CCN(c2cccc3c2CN(C(=O)Cc2ccc(-c4ccc(OC(F)(F)F)cc4)cn2)CC3)CC1 [Compound 46, 1-(8-(4-Methylpiperazin-1-yl)-3,4-dihydroisoquinolin-2(1H)-yl)-2-(5-(4-(trifluoromethoxy)phenyl)pyridin-2-yl)ethan-1-one]	13.7 (≈ 26.8 µM)	20 (≈ 39.2 µM)		12.4 (≈ 24.3 µM)			
